SMILES strings stand for the structures.

These results are taken from ChEMBL document CHEMBL5506027, “Discovery of a Novel and Potent Cyclin-Dependent Kinase 8/19 (CDK8/19) Inhibitor for the Treatment of Cancer” (J Med Chem, 2024).

For data set [1], the target named is Cyclin-dependent kinase 2/cyclin E1 (Homo sapiens) (UniProt P24864+P24941). Description: Inhibition of CDK2/Cyclin E1 (unknown origin) at 1 uM by luminescence based assay relative to control. It counts as protein-complex assay.
Data set [2] addresses T1, Cyclin-dependent kinase 5/CDK5 activator 1 (Homo sapiens) (UniProt Q00535+Q15078). Description: Inhibition of CDK5/p25NCK (unknown origin) at 1 uM by luminescence based assay relative to control. Type of data set: protein-complex assay.
Data set [3] has as its target CDK2/Cyclin A2 (Homo sapiens) (UniProt P24941+P20248). Description: Inhibition of CDK2/CyclinA2 (unknown origin) at 1 uM by luminescence based assay relative to control. Type of data set: protein-complex assay.
Data set [4] addresses T1, Cyclin-dependent kinase 5/CDK5 activator 1 (Homo sapiens). Briefly: Inhibition of CDK5/p35NCK (unknown origin) at 1 uM by luminescence based assay relative to control. Type of data set: protein-complex assay.
For data set [5], the target named is CDK7/Cyclin H/MNAT1 (Homo sapiens) (UniProt P51946+P50613+P51948). Briefly: Inhibition of CDK7/cyclinH/MAT1 (unknown origin) at 1 uM by luminescence based assay relative to control. It counts as protein-complex assay.
Data set [6] deals with Cyclin-Y/Cyclin-dependent kinase 16 (Homo sapiens) (UniProt Q00536+Q8ND76). Briefly: Inhibition of CDK16/cyclinY (unknown origin) at 1 uM by luminescence based assay relative to control. It counts as protein-complex assay.
Data set [7] addresses CDK1/Cyclin E (Homo sapiens) (UniProt P06493+P24864). Description: Inhibition of CDK1/cyclinE1 (unknown origin) at 1 uM by luminescence based assay relative to control. Type of data set: protein-complex assay.
For data set [8], the target named is CDK9/cyclin T1 (Homo sapiens) (UniProt O60563+P50750). Briefly: Inhibition of CDK9/cyclinT1 (unknown origin) at 1 uM by luminescence based assay relative to control. It counts as protein-complex assay.
The target in data set [9] is CDK4/Cyclin D3 (Homo sapiens) (UniProt P11802+P30281). Description: Inhibition of CDK4/cyclinD3 (unknown origin) at 1 uM by luminescence based assay relative to control. It counts as protein-complex assay.
For data set [10], the target named is Cyclin-dependent kinase 13/Cyclin-K (Homo sapiens) (UniProt Q14004+O75909). Briefly: Inhibition of CDK13/cyclinK (unknown origin) at 1 uM by luminescence based assay relative to control. Type of data set: protein-complex assay.
Chain of Cyclin-dependent kinase 13/Cyclin-K (Homo sapiens) (O75909 whole entry, looked up): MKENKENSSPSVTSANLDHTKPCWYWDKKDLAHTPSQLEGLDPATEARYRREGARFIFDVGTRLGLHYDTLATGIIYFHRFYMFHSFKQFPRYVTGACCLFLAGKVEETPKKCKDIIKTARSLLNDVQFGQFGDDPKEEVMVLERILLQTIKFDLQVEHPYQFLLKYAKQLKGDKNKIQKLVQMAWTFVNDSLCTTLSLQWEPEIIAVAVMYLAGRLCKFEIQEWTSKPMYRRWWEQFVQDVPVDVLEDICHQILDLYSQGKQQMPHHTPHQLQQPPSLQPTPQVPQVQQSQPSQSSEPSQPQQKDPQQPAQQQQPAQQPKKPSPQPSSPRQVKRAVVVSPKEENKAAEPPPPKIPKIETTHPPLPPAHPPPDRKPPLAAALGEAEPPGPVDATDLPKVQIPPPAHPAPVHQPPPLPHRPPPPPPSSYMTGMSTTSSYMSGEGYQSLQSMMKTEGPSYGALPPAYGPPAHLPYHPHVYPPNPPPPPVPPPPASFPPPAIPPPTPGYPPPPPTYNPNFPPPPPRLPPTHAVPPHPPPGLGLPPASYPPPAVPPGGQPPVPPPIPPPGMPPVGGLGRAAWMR
Chain of Cyclin-dependent kinase 13/Cyclin-K (Homo sapiens) (Q14004 whole entry, looked up): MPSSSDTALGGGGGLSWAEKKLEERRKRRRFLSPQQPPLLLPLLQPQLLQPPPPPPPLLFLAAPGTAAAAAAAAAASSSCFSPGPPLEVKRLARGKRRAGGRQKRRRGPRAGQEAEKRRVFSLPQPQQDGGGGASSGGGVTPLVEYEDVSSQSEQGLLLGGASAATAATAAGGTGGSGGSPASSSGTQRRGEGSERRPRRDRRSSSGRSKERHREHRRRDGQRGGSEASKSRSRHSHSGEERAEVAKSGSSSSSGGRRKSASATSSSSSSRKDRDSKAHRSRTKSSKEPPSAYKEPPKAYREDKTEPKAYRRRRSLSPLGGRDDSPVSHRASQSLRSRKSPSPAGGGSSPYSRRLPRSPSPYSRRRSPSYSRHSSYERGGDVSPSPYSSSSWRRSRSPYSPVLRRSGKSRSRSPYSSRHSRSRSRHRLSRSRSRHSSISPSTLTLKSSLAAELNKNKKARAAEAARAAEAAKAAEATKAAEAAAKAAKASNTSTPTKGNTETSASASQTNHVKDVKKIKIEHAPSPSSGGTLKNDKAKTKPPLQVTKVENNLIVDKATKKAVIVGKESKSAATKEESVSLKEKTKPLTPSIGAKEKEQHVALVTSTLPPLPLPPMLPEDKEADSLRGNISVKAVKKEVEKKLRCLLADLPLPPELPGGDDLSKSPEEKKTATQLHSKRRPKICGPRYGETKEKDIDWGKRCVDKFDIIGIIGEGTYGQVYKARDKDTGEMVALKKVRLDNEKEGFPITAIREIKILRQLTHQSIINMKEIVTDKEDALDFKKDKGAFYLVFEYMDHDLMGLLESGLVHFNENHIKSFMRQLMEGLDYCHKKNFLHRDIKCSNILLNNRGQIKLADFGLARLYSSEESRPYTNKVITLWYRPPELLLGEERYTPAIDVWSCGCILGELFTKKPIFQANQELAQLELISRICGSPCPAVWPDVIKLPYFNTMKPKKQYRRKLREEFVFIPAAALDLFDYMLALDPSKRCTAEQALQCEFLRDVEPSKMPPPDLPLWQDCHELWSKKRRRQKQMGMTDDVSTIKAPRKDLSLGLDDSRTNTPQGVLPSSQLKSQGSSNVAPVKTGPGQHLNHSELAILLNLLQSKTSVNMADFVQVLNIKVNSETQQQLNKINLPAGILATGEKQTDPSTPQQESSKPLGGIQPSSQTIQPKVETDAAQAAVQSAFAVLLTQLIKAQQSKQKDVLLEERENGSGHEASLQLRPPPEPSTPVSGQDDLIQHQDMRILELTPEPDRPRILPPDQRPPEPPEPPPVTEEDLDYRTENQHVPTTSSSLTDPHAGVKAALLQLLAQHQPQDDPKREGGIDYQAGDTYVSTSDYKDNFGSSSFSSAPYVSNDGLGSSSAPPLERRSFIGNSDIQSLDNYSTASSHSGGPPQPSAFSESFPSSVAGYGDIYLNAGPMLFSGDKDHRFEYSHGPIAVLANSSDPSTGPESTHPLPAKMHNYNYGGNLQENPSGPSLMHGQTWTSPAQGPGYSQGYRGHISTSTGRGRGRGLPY
Data set [11] addresses CDK6/cyclin D1 (Homo sapiens) (UniProt P24385+Q00534). Briefly: Inhibition of CDK6/cyclinD1 (unknown origin) at 1 uM by luminescence based assay relative to control. Type of data set: protein-complex assay.
The target in data set [12] is Cyclin-dependent kinase 8 (Homo sapiens, UniProt P49336). Description: Inhibition of CDK8 (unknown origin) assessed as residual activity at 500 nM by ADP-Glo assay.
Chain of Cyclin-dependent kinase 8 (P49336 whole entry): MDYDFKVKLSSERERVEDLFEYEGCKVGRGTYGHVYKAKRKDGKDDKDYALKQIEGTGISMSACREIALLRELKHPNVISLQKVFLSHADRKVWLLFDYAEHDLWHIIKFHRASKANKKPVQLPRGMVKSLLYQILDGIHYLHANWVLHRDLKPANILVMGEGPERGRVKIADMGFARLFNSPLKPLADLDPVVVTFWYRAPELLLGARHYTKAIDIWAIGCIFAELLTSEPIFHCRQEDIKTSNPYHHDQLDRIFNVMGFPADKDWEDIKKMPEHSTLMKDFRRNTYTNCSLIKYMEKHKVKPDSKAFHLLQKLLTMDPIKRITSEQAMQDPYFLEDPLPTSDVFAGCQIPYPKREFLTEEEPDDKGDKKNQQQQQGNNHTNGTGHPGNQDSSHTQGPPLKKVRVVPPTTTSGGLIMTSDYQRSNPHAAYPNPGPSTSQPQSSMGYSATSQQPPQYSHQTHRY
Data set [13] can be described thus: Tmax in mouse at 30 mg/kg, po measured upto 24 hrs by LC-MS/MS analysis. It counts as ADME, organism-based. Conditions: in vivo.
The nature of data set [14]: Tmax in rat at 10 mg/kg, po measured upto 24 hrs by LC-MS/MS analysis. It counts as ADME, organism-based. The note with it: in vivo.
Data set [15] is described as follows: AUC(0 to 24 hrs) in rat at 10 mg/kg, po measured upto 24 hrs by LC-MS/MS analysis. Conditions: in vivo. It counts as ADME, organism-based.
The nature of data set [16]: Dose normalized AUC in rat at 10 mg/kg, po measured upto 24 hrs by LC-MS/MS analysis. It counts as ADME, organism-based. The note with it: in vivo.
A short description of data set [17]: AUC(0 to 24 hrs) in dog at 5 mg/kg, po measured upto 24 hrs by LC-MS/MS analysis. Type of data set: ADME, organism-based, Canis lupus familiaris. Conditions: in vivo.
Data set [18] can be described thus: Cmax in monkey at 5 mg/kg, po measured upto 24 hrs by LC-MS/MS analysis. The note with it: rhesus monkey, in vivo. It counts as ADME, organism-based, Macaca mulatta.
Data set [19] can be described thus: Clearance in monkey at 1 mg/kg, iv measured upto 24 hrs by LC-MS/MS anlaysis. Type of data set: ADME, organism-based, Macaca mulatta. The note with it: rhesus monkey, in vivo.
Data set [20] can be described thus: Half-life in monkey at 1 mg/kg, iv measured upto 24 hrs by LC-MS/MS anlaysis. The note with it: rhesus monkey, in vivo. It counts as ADME, organism-based, Macaca mulatta.
Another data set relates to MV4-11. Description: Antitumor activity against human MV4-11 cells xenografted in po dosed BALB/c nude mouse assessed as tumor growth inhibition measured twice a week for 3 weeks. Conditions: dose 3-10 mg/kg. Type of data set: functional, organism-based.
The next data set has as its system MDA-MB-231. Description: Inhibition of cell growth in human MDA-MB-231 cells. It counts as functional, cell-based.
Data set [21] in a line: Toxicity in BALB/c nude mouse xenografted with human MV4-11 cells assessed as change in body weight at 3 mg/kg, ip qd and measured twice a week for 3 weeks in presence of carboplatin. It counts as organism-based. The note with it: in vivo, 504 h.
In data set [22] the test system is Z-138. Description: Antitumor activity against human Z138 cells xenografted in po dosed CB17 SCID mouse assessed as tumor growth inhibition administered once daily for 21 days. Type of data set: functional, organism-based. The note with it: dose 2.5-5 mg/kg, time 21.0 day.
The test system of data set [23] is Z-138. Briefly: Synergistic antitumor activity against human Z138 cells xenografted in CB17 SCID mouse assessed as tumor growth inhibition at 2.5 to 5 mg/kg, po administered once daily for 21 days in presence of rituximab. It counts as functional. Conditions: dose 2.5-5 mg/kg, time 21 day.
Data set [24] in a line: Selectivity ratio of IC50 for CDK7/CyclinH/MAT1 (unknown origin) to IC50 for CDK8/Cyclin C (unknown origin).
Data set [25] can be described thus: Selectivity ratio of IC50 for CDK5/p25NCK (unknown origin) to IC50 for CDK8/Cyclin C (unknown origin).
Data set [26] can be described thus: Tmax in mouse at 5 mg/kg, po measured upto 24 hrs by LC-MS/MS analysis. It counts as ADME, organism-based. Conditions: in vivo.
The nature of data set [27]: Oral bioavailability in mouse at 5 mg/kg measured upto 24 hrs by LC-MS/MS analysis. Type of data set: ADME, organism-based. The note with it: in vivo.
Data set [28] can be described thus: Cmax in rat at 5 mg/kg, po measured upto 24 hrs by LC-MS/MS analysis. Type of data set: ADME, organism-based. The note with it: in vivo.
Data set [29] in a line: AUC(0 to 24 hrs) in rat at 5 mg/kg, po measured upto 24 hrs by LC-MS/MS analysis. Type of data set: ADME, organism-based. The note with it: in vivo.
A short description of data set [30]: Oral bioavailability in rat at 5 mg/kg measured upto 24 hrs by LC-MS/MS analysis. It counts as ADME, organism-based. The note with it: in vivo.

T1 sequence (Q00535 whole entry): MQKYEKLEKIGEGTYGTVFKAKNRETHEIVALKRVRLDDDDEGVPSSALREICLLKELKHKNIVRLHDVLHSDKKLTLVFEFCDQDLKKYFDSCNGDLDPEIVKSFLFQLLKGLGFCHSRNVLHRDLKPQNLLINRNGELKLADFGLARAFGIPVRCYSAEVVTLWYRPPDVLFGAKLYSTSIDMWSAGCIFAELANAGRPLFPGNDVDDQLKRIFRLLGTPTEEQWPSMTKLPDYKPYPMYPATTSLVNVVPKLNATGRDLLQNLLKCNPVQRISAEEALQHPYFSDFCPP
T1 sequence (Q15078 99-307 partner limits assumed): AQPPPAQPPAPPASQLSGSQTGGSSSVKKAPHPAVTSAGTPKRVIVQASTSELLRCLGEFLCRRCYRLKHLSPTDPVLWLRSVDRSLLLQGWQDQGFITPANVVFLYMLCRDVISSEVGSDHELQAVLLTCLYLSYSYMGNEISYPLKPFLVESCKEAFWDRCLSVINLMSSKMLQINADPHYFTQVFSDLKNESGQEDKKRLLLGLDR
Chain of CDK1/Cyclin E (Homo sapiens) (P06493 whole entry, looked up): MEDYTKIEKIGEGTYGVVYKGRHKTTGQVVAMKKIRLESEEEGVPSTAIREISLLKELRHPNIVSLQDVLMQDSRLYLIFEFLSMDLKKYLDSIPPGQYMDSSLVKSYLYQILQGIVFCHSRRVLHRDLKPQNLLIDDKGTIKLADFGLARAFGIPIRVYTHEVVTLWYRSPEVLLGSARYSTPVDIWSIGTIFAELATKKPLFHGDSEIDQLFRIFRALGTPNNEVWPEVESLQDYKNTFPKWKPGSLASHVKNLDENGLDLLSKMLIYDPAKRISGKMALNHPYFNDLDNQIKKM
Chain of CDK1/Cyclin E (Homo sapiens) (P24864 whole entry, looked up): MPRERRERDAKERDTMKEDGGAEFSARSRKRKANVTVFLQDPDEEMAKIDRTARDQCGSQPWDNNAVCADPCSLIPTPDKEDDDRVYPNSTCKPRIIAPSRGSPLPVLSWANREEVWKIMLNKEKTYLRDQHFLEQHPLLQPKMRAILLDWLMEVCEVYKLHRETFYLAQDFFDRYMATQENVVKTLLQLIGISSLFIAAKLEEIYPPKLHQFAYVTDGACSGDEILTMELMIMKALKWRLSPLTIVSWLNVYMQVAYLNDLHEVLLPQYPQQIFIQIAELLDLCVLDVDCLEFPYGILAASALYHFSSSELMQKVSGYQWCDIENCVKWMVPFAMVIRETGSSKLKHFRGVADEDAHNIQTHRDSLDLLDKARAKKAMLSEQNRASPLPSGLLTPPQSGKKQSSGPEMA

In the case of `FC(F)c1c(Br)c(Br)cc2c1nc(N1CCNCC1)n2C1CCOCC1`, the inhibition in data set [1] worked out at 94.8%; in data set [2] it was 88.3%; in data set [3], 84.9%; in data set [4], 75.3%; in data set [5], 74.4%; in data set [6], 64.1%. The inhibition in data set [7] worked out at 63.4%; in data set [8], 59.3%; in data set [9], 58%; in data set [10], 57.4%; in data set [11], 19.4%. The Activity was 14% in data set [12], “Dose-Dependent Effect” with MV4-11, “Non-Toxic” in data set [21] and “Dose-Dependent Effect” in the data set with Z-138 [22]. Further, the results for the Tmax in data set [13] and in data set [14] were 1.5 h and 2 h, respectively. Besides, the exposure AUC(0-t) at 24 h turned out to be 1900 ng·h/mL in data set [15] and 5590 ng·h/mL in data set [17]. This compound also showed an AUC/dose in [16] of 190 ng·h/mL. Further, in data set [18], the peak level (Cmax) was 1100 ng/mL. In addition, the clearance in [19] was determined as 13 mL/min/kg. The compound further had a half-life in data set [20] of 7 h. Further, half-maximal inhibition with MDA-MB-231 (IC50) was put at 40 nM. The inhibition of tumour growth (TGI) in the data set on Z-138 [23] came to 86%.
Take `Cc1c(Br)c(Br)c2c3c1nc(N1CCNCC1)n3CCC2` [SEL-120 FREE BASE]: the Ratio IC50 in data set [24] stood at 2.9; in [25], 0.1. Besides, in [26], the time to peak (Tmax) worked out at 1.3 h. The F in [27] amounted to 155%. For the same compound, the Cmax in data set [28] amounted to 12 ng/mL. This compound also registered an exposure AUC(0-t) at 24 h in data set [29] of 56 ng·h/mL. The compound further displayed a bioavailability in data set [30] of 20%.
